# System: allergic rhinitis in adult humans
# Assay: Phase Ib randomized, double-blinded, placebo-controlled study of danazol intranasal spray; subject-reported Total Nasal Symptom Score (TNSS)
# Assay type: in vivo, human
# Design: key to Change in rTNSS, Median / Change in AM rTNSS, Median / Change in iTNSS, Median / Change in AM iTNSS, Median: change in TNSS, sum of four 0–3 symptom scores (0–12)
# Experimental: A Phase Ib randomized, double-blinded, placebo-controlled, parallel group study was performed to evaluate the efficacy of danazol for treating allergic rhinitis in adult humans. Briefly, the study was performed as follows.
# The subjects were male or female humans, 18-65 years of age, with a history of allergic rhinitis that had been receiving therapy (continuous or intermittent) for more than 1 year.
# During a seven-day wash out period (days 1-7), the subjects received no treatment of any type and recorded their symptoms twice a day (in the morning before bathing, consumption of food or beverages or strenuous activities and 12 hours later) using the following scale: • 0=absent (no sign/symptom present) • 1=mild (sign/symptom clearly present, but minimal awareness; easily tolerated) • 2=moderate (definite awareness of sign/symptom that is bothersome but tolerable) • 3=severe (sign/symptom that is hard to tolerate; causes interference with activities of daily living and/or sleeping)
# The subjects were randomized into treatment groups (danazol or placebo) after the wash out period (on day 8).
# Treatment was begun on day 8 and continued through day 21 (14 days total). During treatment, the subjects again recorded their symptoms twice daily (as described above and before administration of the test medications in the morning) using the above scale. The subjects administered 0.3 ml of one of the test medications, 0.15 ml per nostril, once daily in the morning, immediately after recording their symptoms. The first administration of test medications was supervised by test site personnel. The test medications were 0.1% (w/v) danazol intranasal spray and placebo spray (nonmedicinal components in identical intranasal spray format). Efficacy of the test medications was assessed as follows:
# The measures of effectiveness in this study included the subject-reported Total Nasal Symptom Score (TNSS). The TNSS is defined as the sum of the subject-reported symptom scores for the four nasal symptoms: rhinorrhea (runny nose), nasal congestion, nasal itching, and sneezing. Each score is assessed on a severity scale ranging from 0 to 3 as defined above.
# The subjects were asked to assess both reflective TNSS (i.e., an evaluation of symptom severity over the past 12 hours prior to the recording of the score) and instantaneous TNSS (i.e., an evaluation of the symptom severity over the last 10 minutes).
# The reflective and instantaneous TNSS are defined as the sum of the subject-reported symptom scores for the four nasal symptoms. Each subject recorded the symptom scores in the subject's diary. For each score, information recorded in the diary included the following: • rhinorrhea (runny nose) • nasal congestion • nasal itching • sneezing The severity scale for each symptom evaluation is given above.
# Mean reflective (r) and instantaneous (i) subject-reported total nasal symptom scores (TNSS) were calculated for each subject. The mean TNSS is the average of all AM and PM daily scores (each score is ranked on a scale from 0-12) during the baseline (baseline efficacy value) and the treatment period (double-blind efficacy value).
# The change in efficacy was calculated as the change in the double-blind value—baseline value as follows: • Change in rTNSS: mean double-blind rTNSS—mean baseline rTNSS • Change in iTNSS: mean double-blind iTNSS—mean baseline iTNSS Student's t-test: mean (SD) difference between treatment groups for the following: • Mean change in (rTNSS/iTNSS) • Mean change in AM (rTNSS/iTNSS) • Mean change in PM (rTNSS/iTNSS) • Mean change in individual symptom scores for each of the four nasal symptoms.
# The largest improvements were with itchy nose symptoms (Table 8 and FIG. 6).
# [1] = Wilcoxon rank-sum analysis, median, n=10
# [2] = instantaneous symptom score 0-3, double-blind minus baseline, mean (SD), n=10
# [3] = reflective symptom score 0-3, double-blind minus baseline, mean (SD), n=10
smiles,measurement,setting,value
"C#C[C@]1(O)CC[C@H]2[C@@H]3CCC4=Cc5oncc5C[C@]4(C)[C@H]3CC[C@@]21C [Danazol, 17α-pregna-2,4-dien-20-yno[2,3-d]-isoxazol-17β-ol]","Change in instantaneous symptom iItchy nose, Median",[1],−1.0
same,"Change in instantaneous symptom iRunny nose, Median",[1],0.0
same,"Change in instantaneous symptom iSneezing, Median",[1],−0.5
same,"Change in instantaneous symptom iStuffy nose, Median",[1],−0.5
same,"Change in reflective symptom rItchy nose, Median",[1],−1.0
same,"Change in reflective symptom rRunny nose, Median",[1],−0.25
same,"Change in reflective symptom rSneezing, Median",[1],−1.0
same,"Change in reflective symptom rStuffy nose, Median",[1],0.0
same,"efficacy measures showing a larger improvement with danazol than with placebo, instantaneous","iTNSS measures, all assessments but sneezing",6/7
same,Mean change in iTNSS,"instantaneous TNSS, all AM and PM scores, double-blind minus baseline, 0.1% (w/v) intranasal spray once daily, 14 days, mean (SD), n=10",−1.94 (2.68)
same,Mean change in PM iTNSS,"instantaneous TNSS, evening assessment, double-blind minus baseline, mean (SD), n=10",−1.42 (2.64)
same,"Change in PM iTNSS, Median","instantaneous TNSS, evening, Wilcoxon rank-sum analysis, median, n=10",−1.5
same,Mean change in AM iTNSS,"instantaneous TNSS, morning assessment, double-blind minus baseline, mean (SD), n=10",−1.59 (2.36)
same,"Change in AM iTNSS, Median","instantaneous TNSS, morning, Wilcoxon rank-sum analysis, median, n=10",−1.5
same,"Change in iTNSS, Median","instantaneous TNSS, Wilcoxon rank-sum analysis, median, n=10",−1.75
same,Mean change in instantaneous symptom iItchy nose,[2],−0.70 (0.92)
same,Mean change in instantaneous symptom iRunny nose,[2],−0.30 (1.07)
same,Mean change in instantaneous symptom iSneezing,[2],−0.50 (0.53)
same,Mean change in instantaneous symptom iStuffy nose,[2],−0.44 (0.56)
same,decrease in instantaneous symptom severity (iTNSS),"mean, Student's t-test analysis, vs 1.14 point decrease with placebo",1.94 point
same,decrease in reflective symptom severity (rTNSS),"mean, Student's t-test analysis, vs 1.16 point decrease with placebo",2.11 point
same,decrease in instantaneous symptom severity (iTNSS),"median, Wilcoxon rank-sum analysis, vs 0.75 point decrease with placebo",1.75 point
same,decrease in reflective symptom severity during the PM assessment (rTNSS),"median, Wilcoxon rank-sum analysis, vs 1.25 point decrease with placebo",3.25 point
same,"efficacy measures showing a larger improvement with danazol than placebo, reflective","rTNSS measures, all assessments but runny nose symptom",6/7
same,Mean change in rTNSS,"reflective TNSS, all AM and PM scores, double-blind minus baseline, 0.1% (w/v) intranasal spray 0.3 ml once daily, 14 days, mean (SD), n=10",−2.11 (2.66)
same,Mean change in PM rTNSS,"reflective TNSS, evening assessment, double-blind minus baseline, 0.1% (w/v) intranasal spray once daily, 14 days, mean (SD), n=10",−2.39 (2.68)
same,Mean change in PM rTNSS,"reflective TNSS, evening assessment, double-blind minus baseline, 0.1% (w/v) intranasal spray once daily, 14 days, mean (SD), n=10, listed as danazol",−2.39
same,"Change in PM rTNSS, Median","reflective TNSS, evening, Wilcoxon rank-sum analysis, median, n=10",−3.25
same,Mean change in AM rTNSS,"reflective TNSS, morning assessment, double-blind minus baseline, 0.1% (w/v) intranasal spray once daily, 14 days, mean (SD), n=10",−1.62 (2.40)
same,"Change in AM rTNSS, Median","reflective TNSS, morning, Wilcoxon rank-sum analysis, median, n=10",−2.0
same,"Change in rTNSS, Median","reflective TNSS, Wilcoxon rank-sum analysis, median, n=10",−2.25
same,Mean change in reflective symptom rItchy nose,[3],−0.85 (1.02)
same,Mean change in reflective symptom rRunny nose,[3],−0.30 (0.66)
same,Mean change in reflective symptom rSneezing,[3],−0.47 (0.71)
same,Mean change in reflective symptom rStuffy nose,[3],−0.48 (0.69)

# Source: patent US20140294737A1, “TREATMENT OF RHINITIS” (AMPIO PHARMACEUTICALS, INC., priority 2011, published 2014)
